Laboratory results taken from patent EP4685153A1 (priority 2023, dated 2024).
Residues, ends and D or L forms follow the SMILES beside them. *: point of attachment. Succinyl(4-O-cholesteryl) = CC(C)CCC[C@@H](C)[C@H]1CC[C@H]2[C@@H]3CC=C4C[C@@H](OC(=O)CCC(=O)*)CC[C@]4(C)[C@H]3CC[C@]12C

Tested on: SARS-CoV-2 D614G mutant strain
Conditions: 48 h

Row | Structure (SMILES) | IC50 [nM]
1 | CC[C@H](C)[C@H](NC(=O)[C@H](CCCCN)NC(=O)[C@H](CCCCN)NC(=O)[C@H](CCC(=O)O)NC(=O)[C@H](CC(C)C)NC(=O)[C@H](CCC(=O)O)NC(=O)[C@H](CCC(=O)O)NC(=O)[C@H](CC(C)C)NC(=O)[C@H](CCC(=O)O)NC(=O)[C@H](CCCCN)NC(=O)[C@H](CCC(=O)O)NC(=O)[C@H](Cc1ccc(O)cc1)NC(=O)[C@H](CCC(=O)O)NC(=O)[C@H](CCC(=O)O)NC(=O)[C@H](Cc1ccc(O)cc1)NC(=O)[C@H](CCC(=O)O)NC(C)=O)C(=O)N[C@@H](CCC(=O)O)C(=O)N[C@@H](CCC(=O)O)C(=O)N[C@@H](CC(C)C)C(=O)N[C@@H](CC(C)C)C(=O)N[C@@H](CCCCN)C(=O)N[C@@H](CCCCN)C(=O)N[C@@H](C)C(=O)N[C@@H](CCC(=O)O)C(=O)N[C@@H](CCC(=O)O)C(=O)N[C@@H](CCC(N)=O)C(=O)N[C@@H](CCC(N)=O)C(=O)N[C@@H](CCCCN)C(=O)N[C@@H](CCCCN)C(=O)N[C@@H](CC(N)=O)C(=O)N[C@@H](CCC(=O)O)C(=O)N[C@@H](C)C(=O)N[C@@H](C)C(=O)N[C@@H](C)C(=O)N[C@@H](CCCCN)C(=O)N[C@@H](CCCCNC(=O)CCC(=O)O[C@H]1CC[C@@]2(C)C(=CC[C@H]3[C@@H]4CC[C@H]([C@H](C)CCCC(C)C)[C@@]4(C)CC[C@@H]32)C1)C(N)=O [LP-127] (Ac-EYEEYEKELEELEKKIEELLKKAEEQQKKNEAAAKK(Succinyl(4-O-cholesteryl))-NH2) | 27.4
2 | CC[C@H](C)[C@H](NC(=O)[C@H](CCCCN)NC(=O)[C@H](CCCCN)NC(=O)[C@H](CCC(=O)O)NC(=O)[C@H](CC(C)C)NC(=O)[C@H](CCC(=O)O)NC(=O)[C@H](CCC(=O)O)NC(=O)[C@H](CC(C)C)NC(=O)[C@H](CCC(=O)O)NC(=O)[C@H](CCCCN)NC(=O)[C@H](CCC(=O)O)NC(=O)[C@H](Cc1ccc(O)cc1)NC(=O)[C@H](CCC(=O)O)NC(C)=O)C(=O)N[C@@H](CCC(=O)O)C(=O)N[C@@H](CCC(=O)O)C(=O)N[C@@H](CC(C)C)C(=O)N[C@@H](CC(C)C)C(=O)N[C@@H](CCCCN)C(=O)N[C@@H](CCCCN)C(=O)N[C@@H](C)C(=O)N[C@@H](CCC(=O)O)C(=O)N[C@@H](CCC(=O)O)C(=O)N[C@@H](CCC(N)=O)C(=O)N[C@@H](CCC(N)=O)C(=O)N[C@@H](CCCCN)C(=O)N[C@@H](CCCCN)C(=O)N[C@@H](CC(N)=O)C(=O)N[C@@H](CCC(=O)O)C(=O)N[C@@H](C)C(=O)N[C@@H](C)C(=O)N[C@@H](C)C(=O)N[C@@H](CCCCN)C(=O)N[C@@H](CCCCNC(=O)CCC(=O)O[C@H]1CC[C@@]2(C)C(=CC[C@H]3[C@@H]4CC[C@H]([C@H](C)CCCC(C)C)[C@@]4(C)CC[C@@H]32)C1)C(N)=O [LP-128] (Ac-EYEKELEELEKKIEELLKKAEEQQKKNEAAAKK(Succinyl(4-O-cholesteryl))-NH2) | 25.1
